Test results taken from patent US20230048888A1, “USE OF TRIAZOLOTRIAZINE DERIVATIVE IN TREATMENT OF DISEASES” (ZHEJIANG VIMGREEN PHARMACEUTICALS, LTD., priority 2019, published 2023).

Legend:
[1] = system: 6-OHDA-induced contralateral rotation; experiment: 6-OHDA-induced rat rotation experiment, first stage (number of rotations); type: in vivo, Wistar rats
Source text: After long-term use of levodopa, patients with Parkinson's disease are prone to drug resistance (end-of-dose phenomenon). That is, the duration of its pharmaceutical effect tends to gradually become shorter (shortened opening period), its efficacy will become weaker and weaker, and the symptoms of the patients are becoming more and more uncontrollable. By the combined use with the test compound, the efficacy of levodopa can be restored for patients with Parkinson's disease in the off phase, who have already experienced the end-of-dose phenomenon. The rat model of Parkinson's disease was constructed by fixed-point injection of 6-hydroxydopamine (6-OHDA) to damage the substantia nigra striatum, and then the animals were administrated with levodopa (L-DOPA)/Benserazide (BID) for a long term (3-4 weeks as planned).
There should be at least an interval of 1 day between rotation tests for respective doses. A total of 6 tests were carried out in the first stage.
[…] injection volume: each rat was injected with 4 μl of 6-OHDA solution (2.5 μg/μl) on the left medial forebrain bundle (MFB).
Coordinates for injecting […]: by taking the anterior fontanelle as a standard reference point and with reference to the stereotactic map of rat brain, the injection was performed on the left medial forebrain bundle at: anterior(A), −2.5 mm; lateral (L), +2.0 mm; ventral (V), −8.5 mm.
[…] injection speed: the injection speed was 1 μl/min; after injection, the needle was left in situ for 5 min, and then slowly withdrawn at a speed of 1 mm/min; and the wound was then sutured. Grouping and administration were carried out according to the method of experimental design.
In the first stage, only the number of rotations of the animal was tested, and only the rotation response time was tested in the second stage.
The test results are represented as “mean±standard deviation”. The data was statistically analyzed by the SPSS16.0 software package. One-way ANOVA, paired sample T test and independent sample T test were used for comparison, with P<0.05 showing a statistical difference.

B16F10 tumor cells = experiment: B16F10 murine melanoma model; type: in vivo; settings: for Tumor inhibition rate (%): Day 18
Description: The B16F10 murine melanoma model is a classic melanoma pharmaceutical effect evaluation model, which is made by subcutaneously inoculating the same B16F10 tumor cells into female C57BL/6 mice. The test compounds were administrated to evaluate their inhibitory effects on tumor growth in the model.
B16F10 tumor cells were cultured in a DMEM medium containing inactivated 10% fetal bovine serum, 100 U/ml penicillin, 100 μg/ml streptomycin and 2 mM glutamine in an incubator at 37° C. in the presence of 5% CO2; and after the cells grew all over, the tumor cells were divided and passaged in respective flasks every 3 to 4 days. The tumor cells in the logarithmic growth phase were used for in vivo inoculation of tumors.
The B16F10 tumor cells resuspended in a serum-free DMEM culture solution were inoculated subcutaneously at 1×10^5/100 μl to the right ribs of experimental animals. In the second group, when the tumor grew to 75 mm^3, 12 animals with a uniform tumor volume were selected and administered according to the experimental design.
The first day of tumor inoculation was D0, the first, third, and fourth groups were dosed on the second day of tumor inoculation, and the second group was dosed when the tumor volume reached 75 mm^3.
Tumor volume: the tumor volume was measured 3 times a week with a vernier caliper, and the long and short diameters of the tumor were measured. The volume was calculated with a formula as follows:
volume=0.5×long diameter×short diameter^2.
Tumor growth inhibition rate (TGI, %)=(1-T/C)×100.
T/C(%)=(average tumor volume of treatment groups on the current day-average tumor volume of treatment groups on the initial day D0)/(average tumor volume of the control group on the current day-average tumor volume of the control group on the initial day D0)×100.

SMILES: CC(=O)O.Nc1nc(NCCc2ccc(NC3COC3)cc2)nc2nc(-c3ccco3)nn12 [Acetate of Compound 22, 2-(furan-2-yl)-N5-(4-(oxetane-3-ylamino)phenethyl)-[1,2,4]triazolo[1,5-a][1,3,5]triazine-5,7-diamine acetate]
- Total number of rotations (60 min) ([1]; 1 mg/kg oral + L-DOPA (5 mg/kg)/Benserazide (1.25 mg/kg) i.p.): 41.4 ± 80.8
- Total number of rotations (60 min) ([1]; 3 mg/kg oral + L-DOPA (5 mg/kg)/Benserazide (1.25 mg/kg) i.p.): 36.6 ± 46.3
- Total number of rotations (60 min) ([1]; 10 mg/kg oral + L-DOPA (5 mg/kg)/Benserazide (1.25 mg/kg) i.p.): 109.4 ± 205.2
- Total number of rotations (60 min) ([1]; 30 mg/kg oral + L-DOPA (5 mg/kg)/Benserazide (1.25 mg/kg) i.p.): 285.2 ± 283.8
- Total number of rotations (60 min) ([1]; 100 mg/kg oral + L-DOPA (5 mg/kg)/Benserazide (1.25 mg/kg) i.p.): 379.3 ± 326.4
- Total number of rotations (60 min) ([1]; single oral 1 mg/kg alone): 7.7 ± 5.6
- Total number of rotations (60 min) ([1]; single oral 3 mg/kg alone): 17.1 ± 18.7
- Total number of rotations (60 min) ([1]; single oral 10 mg/kg alone): 11.6 ± 13.9
- Total number of rotations (60 min) ([1]; single oral 30 mg/kg alone): 30.7 ± 22.5
- Total number of rotations (60 min) ([1]; single oral 100 mg/kg alone): 35.2 ± 18.8

SMILES: Nc1nc(NCCc2ccc(NC3COC3)cc2)nc2nc(-c3ccco3)nn12 [Compound 22, 2-(furan-2-yl)-N5-(4-(oxetan-3-ylamino)phenethyl)-[1,2,4]triazolo[1,5-a][1,3,5]triazine-5,7-diamine]
- Tumor inhibition rate (%) (B16F10 tumor cells; 50 mg/kg p.o. QD): 22.1%
- Tumor inhibition rate (%) (B16F10 tumor cells; 50 mg/kg p.o. QD + Anti PD-1 10 mg/kg i.p. 2/WK): 48.1%
- Animal death / changes in body weight (B16F10 tumor cells; alone or combined with anti PD-1): No animal death or significant changes in body weight
